How the values were obtained:
[1] = target: T1, Hck alone (Homo sapiens, UniProt P08631); test: In vitro kinase assay of Hck alone (Z'-LYTE, peptide substrate); assay type: biochemical; settings: Z'-Lyte dose-response, FIG. 7
T1 construct: made in house; host or cells: Sf9 insect cells

[2] = tested on: U87MG cells; settings: human, 96 h, 30 μM
Procedure: (§1) Lead compounds from the yeast screen were evaluated for activity in a Nef-dependent HIV replication assay. For these experiments, U87MG astroglioma cells engineered to express the HIV-1 co-receptors CD4 and CXCR4 were employed. Replication of HIV-1 NL4-3 is dependent upon an intact viral nef gene in these cells, making this system suitable to evaluate leads from the Nef-directed screen. U87MG cells were infected with HIV-1 in the presence of the top five compounds identified in the yeast screen, and HIV replication was monitored as p24 release into the culture supernatant 4 days later, as known in the art. As known in the art, “p24” refers to a constituent protein of the capsid of HIV-1.
(§2) The data of Table 1 are presented as percent p24 release relative to control in the absence of compound. […] Data are expressed as percent viable cells relative to untreated control culture.

[3] = target: Nef:Hck-YEEI complex (Homo sapiens, UniProt P08631); settings: Z'-Lyte dose-response, FIG. 7
Sequence of Nef:Hck-YEEI complex (P08631 with tags, fused parts or gaps isoform P08631-3, other chains not shown): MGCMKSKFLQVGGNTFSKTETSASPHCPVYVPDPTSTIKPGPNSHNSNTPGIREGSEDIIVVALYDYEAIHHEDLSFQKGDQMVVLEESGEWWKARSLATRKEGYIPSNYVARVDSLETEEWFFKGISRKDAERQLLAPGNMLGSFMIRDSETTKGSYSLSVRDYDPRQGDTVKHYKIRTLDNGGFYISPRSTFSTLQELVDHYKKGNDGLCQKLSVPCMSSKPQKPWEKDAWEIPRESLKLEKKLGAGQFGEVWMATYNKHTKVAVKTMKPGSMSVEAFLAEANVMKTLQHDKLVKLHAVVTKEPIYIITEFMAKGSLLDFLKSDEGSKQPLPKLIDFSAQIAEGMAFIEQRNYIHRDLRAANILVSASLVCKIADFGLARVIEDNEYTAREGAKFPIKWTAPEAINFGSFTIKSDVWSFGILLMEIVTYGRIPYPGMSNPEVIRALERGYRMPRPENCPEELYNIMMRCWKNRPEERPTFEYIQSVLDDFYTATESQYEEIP

[4] = tested on: HIV-1 strain NL4-3; test: microbe, parasite or virus in culture; assay type: cell-based
Procedure: as §1, §2
It is understood that “strongest” and like terms in the context of inhibitors identified in a library screen refer to compounds that inhibit at the lowest concentrations. For these experiments, the U87MG astroglioma cell line was used as a model system. […] U87MG cells were infected with HIV-1 strain NL4-3 as well as an isogenic variant that fails to express Nef (ΔNef), over a wide range of viral titers and in the presence of each compound at 5 μM. Viral replication was assessed as HIV p24 antigen release into the culture supernatant 4 and/or 5 days later. Methods for the assay of p24 in culture supernatant are well known in the art and include, for example without limitation, immunochemical methods.

T1 sequence (P08631 with tags, fused parts or gaps isoform P08631-3): as the sequence (P08631 with tags, fused parts or gaps isoform P08631-3, other chains not shown) above

In the case of Nc1ncnc2oc(-c3ccccc3)c(-c3ccccc3)c12 [IIIi], the “Inhibition of Hck alone” value [1] is reported as “virtually inactive”, the “Cytotoxicity, Viable cell % control” value [2] is reported as 94 % control and the “Inhibition of Nef:Hck complex” value [3] is reported as “virtually inactive”. For the same compound, the activity at 5 µM ([4]; Human immunodeficiency virus 1, NL43, U-87 MG, 96 h, read-out: HIV p24% Control @ day 4) was 72% and the “Anti-retroviral activity” value ([4]; data not shown) was “very weak anti-retroviral activity”.
